Results on 18 compounds are retold here after patent US20020019389A1, “Urea derivative useful as an anti-cancer agent and process for preparing same” (priority 2000, published 2002).

The structures appear in SMILES notation. ≈ marks a conversion by molar mass, not a printed value. Read-outs that look alike come from different tables or passages of the source.

What all share (format): cell-based
In data set [1] the test system is SUN638 (gastric cancer) cell line. Kind of data set: Anti-cancer activity in vitro, SUN638 cell line. The method, then: (§1) The anti-cancer activity and toxicity of the compound according to the present invention were evaluated in vitro using A549 (lung cancer), SUN638 (gastric cancer), HCT116 (rectal cancer), and A431 (ovarian cancer) cell lines. The above four (4) cell lines were purchased from Cancer Research Institute, Seoul National University College of Medicine. […] The experiment was basically carried out according to the process described in Monks, A., et al, Journal of National Cancer Institute. 83: 757-766 (1991) and the results are represented in the following Tables 2 and 3.

The subject of data set [2] is A549 (lung cancer) cell line. As to the kind of experiment: Anti-cancer activity in vitro, A549 cell line. The method, then:
as §1

The subject of data set [3] is HCT116 (rectal cancer) cell line. Kind of data set: Anti-cancer activity in vitro, HCT116 cell line. The method, then: as §1
Setting [4] is: SUN638 Cell Line, read-out: GI50.
Setting [5] is: Homo sapiens, A549, read-out: LC50.
The mark [6] stands for this setting: Homo sapiens, A549 Cell Line, read-out: GI50.
Setting [7] is: Homo sapiens, HCT-116, read-out: LC50.

Consider `COc1ccc(C#N)cc1NC(=O)N1CCN(c2cc(C)cc(C)c2)CC1` [Compound 26, 1-[(2-methoxy-5-cyanophenyl)aminocarbonyl]-4-(3,5-dimethylphenyl)piperazine], for which the figures for the GI50 in data set [1] (setting [4]) and in data set [2] (setting [6]) were 2.51 µg/mL (≈ 6.89 µM) and 1.36 µg/mL (≈ 3.73 µM), respectively. Besides, the 50% lethal concentration (LC50) in data set [1] (read-out: LC50) and in data set [2] (setting [5]) was over 100 µg/mL throughout.

In data set [1] (SUN638 Cell Line), `C=CCN(CC=C)c1nc(N(CC=C)CC=C)nc(N2CCN(C(=O)Nc3nc4ccccc4nc3OC)CC2)n1` [Compound 53] showed a 50% growth inhibitory concentration (GI50) of 2.18 µg/mL (≈ 3.92 µM), an LC50 of over 100 µg/mL and a TGI50 of 5.49 µg/mL. Besides, in data set [2] (A549 Cell Line), the GI50 turned out to be 2.75 µg/mL (≈ 4.94 µM), the LC50 was over 100 µg/mL and the TGI50 was found to be 8.91 µg/mL.

In the case of `COc1cc2c(cc1OC)[C@@H](c1ccccc1)CN(C(=O)n1ccnc1)CC2` [Compound 68, 3-[(1H-imidazol-1-yl)carbonyl]-(R)-7,8-dimethoxy-1-phenyl-2,3,4,5-tetrahydro-3H-benzazepine], the GI50 is 0.22 µg/mL (≈ 0.583 µM) in data set [1] (SUN638 Cell Line), 0.24 µg/mL (≈ 0.636 µM) in data set [3] (HCT116 Cell Line) and 0.23 µg/mL (≈ 0.609 µM) in data set [2] (A549 Cell Line). Also, the LC50 in data set [1] (SUN638 Cell Line), in data set [3] (HCT116 Cell Line) and in data set [2] (A549 Cell Line) was over 100 µg/mL each time. Moreover, the TGI50 came out at 97.72 µg/mL in data set [1] (SUN638 Cell Line), 10.96 µg/mL in data set [3] (HCT116 Cell Line) and 100 µg/mL in data set [2] (A549 Cell Line).

In the case of `COc1cc(OC)cc(N2CCN(C(=O)n3ccnc3)CC2)c1` [Compound 58, 1-[(1H-imidazol-1-yl)carbonyl]-4-(3,5-dimethoxyphenyl) piperazine], the GI50 in data set [1] worked out at 2.39 µg/mL (≈ 7.55 µM); in data set [3] (Homo sapiens, HCT-116) it was 0.66 µg/mL (≈ 2.09 µM); in data set [2] (Homo sapiens, A549), 2.75 µg/mL (≈ 8.69 µM). The LC50 in data set [1] (read-out: LC50), in data set [3] (setting [7]) and in data set [2] (setting [5]) was over 100 µg/mL each time.

In data set [3] (HCT116 Cell Line), `COc1ccc2c(c1)C(c1ccc(Cl)cc1)CN(C(=O)n1ccnc1)CC2` (stereo not drawn) [Compound 74, 3-[(1H-imidazol-1-yl)carbonyl]-8-methoxy-1-(4-chloro)phenyl-2,3,4,5-tetrahydro-3H-benzazepine] came in with a GI50 of 1.44 µg/mL (≈ 3.77 µM), an LC50 of over 100 µg/mL and a TGI50 of 7.24 µg/mL.

Regarding `COc1cc2c(cc1OC)C(c1ccccc1)CN(C(=O)Nc1cc(C)c(C)nc1OC)CC2` (stereo not drawn) [Compound 1, 3-[N-(5,6-dimethyl-2-methoxypyridin-3-yl)aminocarbonyl]-7,8-dimethoxy-1-phenyl-2,3,4,5-tetrahydro-3H-benzazepine], in data set [1] (SUN638 Cell Line), the GI50 turned out to be 1.99 µg/mL (≈ 4.31 µM), the LC50 was over 100 µg/mL and the TGI50 was 7.07 µg/mL. In data set [2] (A549 Cell Line), this compound displayed a GI50 of 1.21 µg/mL (≈ 2.62 µM), an LC50 of over 100 µg/mL and a TGI50 of 39.81 µg/mL.

As to `O=C(N1CCC(c2ccccc2)(c2ccccc2)CC1)n1ccnc1` [Compound 80, 1-[(1H-imidazol-1-yl)carbonyl]-4,4-diphenyl-piperidine], the GI50 turned out to be 1.62 µg/mL (≈ 4.89 µM) in data set [1]; 1.47 µg/mL (≈ 4.44 µM) in data set [3] (Homo sapiens, HCT-116); 1.38 µg/mL (≈ 4.16 µM) in data set [2] (Homo sapiens, A549). Also, the LC50 in data set [1] (read-out: LC50), in data set [3] (setting [7]) and in data set [2] (setting [5]) was over 100 µg/mL each time.

In the case of `COc1cc2c(cc1OC)C(c1ccc(Cl)cc1)CN(C(=O)n1ccnc1)CC2` (stereo not drawn) [Compound 71, 3-[(1H-imidazol-1-yl)carbonyl]-7,8-dimethoxy-1-(4-chloro)phenyl-2,3,4,5-tetrahydro-3H-benzazepine], the GI50 in data set [1] (SUN638 Cell Line) was 2.63 µg/mL (≈ 6.39 µM); in data set [3] (HCT116 Cell Line), 2.69 µg/mL (≈ 6.53 µM); in data set [2] (A549 Cell Line), 4.78 µg/mL (≈ 11.6 µM). Besides, the LC50 in data set [1] (SUN638 Cell Line), in data set [3] (HCT116 Cell Line) and in data set [2] (A549 Cell Line) was over 100 µg/mL each time. Besides, the TGI50 in data set [1] (SUN638 Cell Line) was 9.12 µg/mL; in data set [3] (HCT116 Cell Line) it was 14.12 µg/mL; in data set [2] (A549 Cell Line), 93.32 µg/mL.

Turning to `O=C(NC(c1ccccc1)c1ccccc1)N1CCC(c2ccccc2)(c2ccccc2)CC1` [Compound 17, 1-[N-(diphenylmethyl)aminocarbonyl]-4,4-diphenyl-piperidine], the GI50 in data set [1] (setting [4]) was determined as 0.63 µg/mL (≈ 1.41 µM); in data set [2] (setting [6]), 6.45 µg/mL (≈ 14.4 µM). The LC50 in data set [1] (read-out: LC50) and in data set [2] (setting [5]) was over 100 µg/mL in each case.

With `COc1cc2c(cc1OC)[C@H](c1ccccc1)CN(C(=O)n1ccnc1)CC2` [Compound 69, 3-[(1H-imidazol-1-yl)carbonyl]-(S)-7,8-dimethoxy-1-phenyl-2,3,4,5-tetrahydro-3H-benzazepine], in data set [1] (SUN638 Cell Line), the GI50 was determined as 0.13 µg/mL (≈ 0.344 µM), the LC50 is over 100 µg/mL and the TGI50 worked out at 3.63 µg/mL. For the same compound, in data set [3] (HCT116 Cell Line), the GI50 was 0.13 µg/mL (≈ 0.344 µM), the LC50 is over 100 µg/mL and the TGI50 is 10.71 µg/mL. In data set [2] (A549 Cell Line), this compound returned a GI50 of 0.36 µg/mL (≈ 0.954 µM), an LC50 of over 100 µg/mL and a TGI50 of 97.72 µg/mL.

In data set [1] (SUN638 Cell Line), `CCOc1nc2ccccc2nc1NC(=O)N1CCc2cc(OC)c(OC)cc2C(c2ccccc2)C1` (stereo not drawn) [Compound 7, 3-[N-(2-ethoxyquinoxalin-3-yl)aminocarbonyl]-7,8-dimethoxy-1-phenyl-2,3,4,5-tetrahydro-3H-benzazepine] returned a GI50 of 2.45 µg/mL (≈ 4.91 µM), an LC50 of over 100 µg/mL and a TGI50 of 7.41 µg/mL. In data set [3] (HCT116 Cell Line), the GI50 was determined as 0.15 µg/mL (≈ 0.301 µM), the LC50 was over 100 µg/mL and the TGI50 came out at 4.08 µg/mL. Moreover, in data set [2] (A549 Cell Line), the GI50 came to 3.38 µg/mL (≈ 6.78 µM), the LC50 is over 100 µg/mL and the TGI50 was 100 µg/mL.

As to `C=C(C)CN(CC)c1nc(N2CCN(C(=O)n3ccnc3)CC2)nc(N(CC)CC(=C)C)n1` [Compound 63, 1-[(1H-imidazol-1-yl)carbonyl]-4-{4,6-bis-[ethyl-(2-methylallyl)amino]-[1,3,5]triazin-2-yl}piperazine], the GI50 in data set [1] amounted to 1.81 µg/mL (≈ 3.99 µM); in data set [3] (Homo sapiens, HCT-116) it was 1.77 µg/mL (≈ 3.9 µM); in data set [2] (Homo sapiens, A549), 2.23 µg/mL (≈ 4.92 µM). Besides, the LC50 in data set [1] (read-out: LC50), in data set [3] (setting [7]) and in data set [2] (setting [5]) was over 100 µg/mL throughout.

Turning to `COc1cc2c(cc1OC)C(c1ccc(F)cc1)CN(C(=O)Nc1nc3ccccc3nc1OC)CC2` (stereo not drawn) [Compound 5, 3-[N-(2-methoxyquinoxalin-3-yl)aminocarbonyl]-7,8-dimethoxy-1-(4-fluoro)phenyl-2,3,4,5-tetrahydro-3H-benzazepine], in data set [1] (SUN638 Cell Line), the GI50 came out at 1.69 µg/mL (≈ 3.36 µM), the LC50 is over 100 µg/mL and the TGI50 was 6.16 µg/mL. In data set [3] (HCT116 Cell Line), this compound yielded a GI50 of 0.15 µg/mL (≈ 0.298 µM), an LC50 of over 100 µg/mL and a TGI50 of 4.07 µg/mL. Besides, in data set [2] (A549 Cell Line), the GI50 worked out at 2.08 µg/mL (≈ 4.14 µM), the median lethal concentration (LC50) was over 100 µg/mL and the TGI50 was determined as 46.98 µg/mL.

In data set [1] (SUN638 Cell Line), `COc1ccc2c(c1)C(c1ccccc1)CN(C(=O)n1ccnc1)CC2` (stereo not drawn) [Compound 72, 3-[(1H-imidazol-1-yl)carbonyl]-8-methoxy-1-phenyl-2,3,4,5-tetrahydro-3H-benzazepine] had a concentration for 50% growth inhibition (GI50) of 1.44 µg/mL (≈ 4.14 µM), an LC50 of over 100 µg/mL and a TGI50 of 7.24 µg/mL. In data set [3] (HCT116 Cell Line), this compound gave a GI50 of 0.10 µg/mL (≈ 0.288 µM), an LC50 of over 100 µg/mL and a TGI50 of 9.42 µg/mL. In data set [2] (A549 Cell Line), the GI50 came out at 2.23 µg/mL (≈ 6.42 µM), the LC50 is over 100 µg/mL and the TGI50 is 100 µg/mL.

For the compound `COc1nc2ccccc2nc1NC(=O)N1CCC(c2ccccc2)(c2ccccc2)CC1` [Compound 16, 1-[N-(2-methoxyquinoxalin-3-yl)aminocarbonyl]-4,4-diphenyl-piperidine], the values for the GI50 in data set [1] (setting [4]) and in data set [2] (setting [6]) were 0.15 µg/mL (≈ 0.342 µM) and 1.02 µg/mL (≈ 2.33 µM), respectively. Further, the LC50 in data set [1] (read-out: LC50) and in data set [2] (setting [5]) was over 100 µg/mL in each case.

Consider `Cc1cc(C)cc(N2CCN(C(=O)Nc3nc4ccccc4[n+]([O-])n3)CC2)c1` [Compound 28, 1-[(benzo-1,2,4-triazin-1-N-oxide-3-yl)aminocarbonyl]-4-(3,5-dimethylphenyl)piperazine], for which, in data set [1] (SUN638 Cell Line), the GI50 worked out at 1.99 µg/mL (≈ 5.26 µM), the LC50 was over 100 µg/mL and the TGI50 was 7.07 µg/mL. In data set [2] (A549 Cell Line), the GI50 stood at 1.31 µg/mL (≈ 3.46 µM), the LC50 is over 100 µg/mL and the TGI50 is 34.67 µg/mL.

`COc1cc2c(cc1OC)C(c1ccc(Cl)cc1)CN(C(=O)Nc1nc3ccccc3nc1OC)CC2` (stereo not drawn) [Compound 6, 3-[N-(2-methoxyquinoxalin-3-yl)aminocarbonyl]-7,8-dimethoxy-1-(4-chloro)phenyl-2,3,4,5-tetrahydro-3H-benzazepine]: in data set [1] (SUN638 Cell Line), the GI50 was found to be 1.90 µg/mL (≈ 3.66 µM), the LC50 was over 100 µg/mL and the TGI50 was found to be 6.91 µg/mL. In data set [3] (HCT116 Cell Line), this compound displayed a GI50 of 0.39 µg/mL (≈ 0.751 µM), an LC50 of over 100 µg/mL and a TGI50 of 3.31 µg/mL. Also, in data set [2] (A549 Cell Line), the GI50 turned out to be 2.69 µg/mL (≈ 5.18 µM), the LC50 was over 100 µg/mL and the TGI50 is 100 µg/mL.

With `COc1cc2c(cc1OC)[C@@H](c1ccccc1)CN(C(=O)Nc1nc3ccccc3nc1OC)CC2` [Compound 4, 3-[N-(2-methoxyquinoxalin-3-yl)aminocarbonyl]-(R)-7,8-dimethoxy-1-phenyl-2,3,4,5-tetrahydro-3H-benzazepine], in data set [1] (SUN638 Cell Line), the GI50 is 1.86 µg/mL (≈ 3.84 µM), the LC50 is over 100 µg/mL and the TGI50 was determined as 6.76 µg/mL. In data set [3] (HCT116 Cell Line), this compound registered a GI50 of 0.12 µg/mL (≈ 0.248 µM), an LC50 of over 100 µg/mL and a TGI50 of 3.54 µg/mL. Also, in data set [2] (A549 Cell Line), the GI50 came to 1.20 µg/mL (≈ 2.48 µM), the LC50 was over 100 µg/mL and the TGI50 turned out to be 100 µg/mL.
